Assay results as given in US20240148679A1, “METHODS AND COMPOSITIONS RELATED TO TREATMENT AND PREVENTION OF CANCER BY INHIBITION OF DGAT1 AND DGAT2” (Ohio State Innovation Foundation, priority 2019, published 2024).

Tests used:
[1] = tested on: U87/EGFRvIII cells-derived subcutaneous model; assay: U87/EGFRvIII subcutaneous xenograft model; assay type: in vivo, mice; settings: 120 mg/kg/day
Procedure: (§1) (A-C) The effects of the DGAT1 inhibitor […] (120 mg/kg/day, oral gavage, details in Methods) in U87/EGFRvIII cells (1×10^6 cells/mouse)- or GBM30-derived subcutaneous models (4×10^6 cells/mouse), as shown by tumor growth rate in A and final isolated tumor images and weights in B. Tumor tissues were analyzed for LD presence by IF (TIP47 staining) and CPT1A and cleaved Caspase 3 levels by IHC in C. LD numbers and protein levels in tumor tissues were quantified by ImageJ and averaged from 5 separate areas in each tumor. The results for protein levels were normalized to control tumors (mean±SEM). Statistical significance was determined by one-way ANOVA. * P<0.01 for comparison with control group. Scale bars, m for IF, 40 m for IHC.
(§2) It was next examined whether pharmacological inhibition of DGAT1 is effective in inhibiting GBM growth using U87/EGFRvIII and GBM30 xenograft models. Tumor cells were implanted in mice flanks and started treatment with DGAT1 inhibitor A-922500 (120 mg/kg/day) when tumor reached approximately 80 mm3.
(§3) Intracranial xenograft models were generated using female athymic nude (NCr-nu/nu) mice (6-8 weeks of age obtained from OSU Target Validation Shared Resource). U87EGFRvIII (1×10^6) cells infected with shDGAT1-, shDGAT2- or scramble shRNA-expressing lentivirus for 48 hr (suspended in 100 μl PBS) were implanted into mice flank to generate subcutaneous model. For intracranial xenograft model, U87EGFRvIII-luc (1×10^5) or GBM30-luc (1×10^5) cells infected with shDGAT1-, shDGAT2- or scramble shRNA-expressing lentivirus for 48 hours (suspended in 5 μl PBS) were implanted into mouse brains. Mice were observed until they became moribund, at which point they were sacrificed. For drug treatment, U87EGFRvIII (1×10^6 cells suspended in 100 μl PBS) or GBM30 cells (4×10^6 suspended in 100 μl PBS and then mixed with 100 μl matrigel) were implanted in mouse flanks. DGAT1 inhibitor A-922500 (120 mg/kg/day, oral gavage) was formulated by 1% Tween 80 in PBS and administrated to mice when tumor size reached approximately 80 mm^3.

[2] = tested on: GBM30-derived subcutaneous model; assay: GBM30 subcutaneous xenograft model; assay type: in vivo, mice; settings: 120 mg/kg/day
Procedure: as §1, §2, §3

GBM cells (U251) = assay: Mitochondrial morphology (TEM, MitoTracker Red); assay type: cell-based, human; settings: inhibitor 24 hours
Procedure: (A, B) Transmission electron microscopy (TEM) analysis of the mitochondrial morphology in GBM cells (U251) treated with the DGAT1 inhibitor A-922500 (20 μg/ml) or DGAT2 inhibitor PF-06424439 (20 μg/ml) for 24 hr and shown in a or infected with shRNA-expressing lentivirus against DGAT1 for 48 hr and shown in b. Scale bar, 500 nm. Mitochondria are indicated by red arrows. Mitochondria length and loss of cristae (%) were quantified by ImageJ over 100 mitochondria in each group (mean±SEM). Statistical significance was determined by one-way ANOVA. * P<0.0001. (C, D) Representative fluorescence images of LDs (green) and mitochondria (red) in U251 cells treated with DGAT1 or DGAT2 inhibitor and shown in c or shRNA in (D) as in panels (A, B). […] The percentage of cells with tubular or fragmented mitochondria was quantified by ImageJ in more than 100 cells (mean±SEM). Statistical significance was determined by one-way ANOVA. * P<0.001. […] Lower panels show the quantification of relative basal and maximal OCR change (details please see Methods). […] Basal OCR was determined as OCR before oligomycin subtract OCR after rotenone addition, and maximal OCR was determined as OCR after FCCP subtract OCR after rotenone addition. Statistical significance was determined by one-way ANOVA. * P<0.0001. […] ROS were detected with CellROX Deep Red, and mitochondria were stained with MitoTracker Green. […]

[3] = oral gavage, listed as A-900225

O=C(Nc1ccccc1)Nc1ccc(-c2ccc(C(=O)[C@@H]3CCC[C@H]3C(=O)O)cc2)cc1 [A-922500]
CPT1A expression in tumor tissues [1]: significantly increased CPT1A expression | LD formation in tumor tissues (TIP47) [1]: dramatically suppressed LD formation | cleaved caspase 3 levels in tumor tissues [1]: markedly elevated cleaved caspase 3 levels | tumor growth ([1]; oral gavage): significantly suppressed tumor growth | tumor weight ([1]; oral gavage): dramatic reduction in tumor weight | tumor growth [1, 3]: dramatically suppresses GBM tumor growth | CPT1A expression in tumor tissues [2]: significantly increased CPT1A expression | LD formation in tumor tissues (TIP47) [2]: dramatically suppressed LD formation | cleaved caspase 3 levels in tumor tissues [2]: markedly elevated cleaved caspase 3 levels | tumor growth ([2]; oral gavage): significantly suppressed tumor growth | tumor weight ([2]; oral gavage): dramatic reduction in tumor weight | tumor growth [2, 3]: dramatically suppresses GBM tumor growth | structure of mitochondria (GBM cells (U251)): severely disrupted
